# From the supplement of paper PMC10307832
# Experiments:
# Test in all cases: relative viability (nuclei count vs DMSO), 5 days (fraction); higher = more cells survive
# [1] = compound: CC1=C(C(=NN1)C)CC2=C(C3=C(S2)N(C(=O)N(C3=O)C)CC(C)C)C(=O)N4C[C@@H](CO4)O
# In short: (§1)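 Lung cancer cell lines in 1536-well plates were exposed by pinning to five library-drug doses (not always all listed) √10 apart, following an overnight hold at 37 °C. MetaXpress counted Hoechst-stained nuclei from 4× images taken after 5 days without medium change. Viability is the median ratio of treated-well to vehicle-well nuclei across plates. Plates required control CV below 25% and at least one doubling.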
# IDH-C35 = compound: Cc1ccccc1C(C(=O)NC1CCCCC1)N(C(=O)Cn1ccnc1C)c1cccc(F)c1 [IDH-C35]
# In short: as §1
# [2] = compound: CC1=C(C(=NN1)C)CC2=C(C3=C(S2)N(C(=O)N(C3=O)C)CC(C)C)C(=O)N4C[C@@H](CO4)O + COc1cccc2cc(-c3nc([C@H]4CC[C@H](C(=O)O)CC4)n4ncnc(N)c34)[nH]c12 [OSI-027] (partner 0.5 µM)
# In short: (§2)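 One day after seeding in 1536-well plates, lung cancer cell lines were dosed by pin tool. Dosing was either single-drug or a fixed anchor-drug dose plus five library-drug doses (not always all listed) in √10 steps. After 5 days, nuclei were stained in one fix-and-stain step and counted on 4× images, and relative viability is the nuclei count of treated wells over that of vehicle wells, given as the median of duplicate plates.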
# IDH-C35 + Pemetrexed = compound: Cc1ccccc1C(C(=O)NC1CCCCC1)N(C(=O)Cn1ccnc1C)c1cccc(F)c1 [IDH-C35] + Nc1nc2[nH]cc(CCc3ccc(C(=O)N[C@@H](CCC(=O)O)C(=O)O)cc3)c2c(=O)[nH]1 [Pemetrexed] (partner 0.2 µM)
# In short: as §2
Cell Line,relative viability ([1]; 0.0025 µM),relative viability ([1]; 0.007906 µM),relative viability ([1]; 0.025 µM),relative viability ([1]; 0.07906 µM),relative viability ([1]; 0.25 µM),relative viability (IDH-C35; 0.08 µM),relative viability (IDH-C35; 0.253 µM),relative viability (IDH-C35; 0.8 µM),relative viability (IDH-C35; 2.53 µM),relative viability (IDH-C35; 8 µM),relative viability ([2]; first compound 0.0025 µM),relative viability ([2]; first compound 0.007906 µM),relative viability ([2]; first compound 0.025 µM),relative viability ([2]; first compound 0.07906 µM),relative viability ([2]; first compound 0.25 µM),relative viability (IDH-C35 + Pemetrexed; first compound 0.08 µM),relative viability (IDH-C35 + Pemetrexed; first compound 0.253 µM),relative viability (IDH-C35 + Pemetrexed; first compound 0.8 µM),relative viability (IDH-C35 + Pemetrexed; first compound 2.53 µM),relative viability (IDH-C35 + Pemetrexed; first compound 8 µM)
NCI-H322M,0.98,1.02,0.948,1.02,0.919,0.92,0.973,0.933,0.963,1,0.529,0.539,0.483,0.64,0.5,0.622,0.554,0.644,0.578,0.608
NCI-H358,1.09,0.992,1.01,1.02,0.983,0.942,0.984,0.807,0.942,0.919,0.679,0.724,0.845,0.895,0.854,0.168,0.179,0.175,0.184,0.172
NCI-H441,1,1.05,0.901,1.08,1.13,1.11,0.892,1,0.982,0.909,0.601,0.634,0.707,0.665,0.677,0.256,0.272,0.269,0.292,0.244
NCI-H460,1.02,1.08,0.955,0.968,1.06,1.01,0.99,1.01,0.957,0.94,0.718,0.821,0.683,0.648,0.779,0.0621,0.0643,0.0648,0.0655,0.0759
NCI-H520,1.03,0.914,0.644,0.79,0.628,1.01,1.05,0.87,0.91,1,0.276,0.281,0.27,0.277,0.193,0.776,0.548,0.715,0.699,0.622
NCI-H522,0.933,1.12,0.735,0.64,0.653,1.02,1.07,0.931,0.884,0.99,0.804,0.624,0.608,0.45,0.546,0.874,1.04,0.818,0.793,1.05
NCI-H596,1.09,1.13,0.978,1.04,1.11,0.884,0.938,0.972,0.925,1.01,0.721,0.822,0.889,0.803,0.715,0.473,0.475,0.529,0.549,0.455
NCI-H647,1.03,1.1,0.932,0.915,0.934,1.03,0.94,0.972,0.936,0.949,0.727,0.805,0.805,0.769,0.569,0.186,0.161,0.175,0.171,0.167
NCI-H650,0.987,0.91,0.869,0.919,1.06,0.894,1.2,0.981,–,0.962,0.637,0.509,0.501,0.451,0.647,0.911,0.96,0.893,–,0.893
NCI-H661,0.948,0.997,0.956,0.946,0.964,0.994,0.971,0.978,0.983,0.91,0.783,0.636,0.663,0.677,0.862,0.95,0.948,0.893,0.901,0.879
NCI-H838,0.992,0.979,0.876,0.84,0.856,1.07,0.935,0.978,1.01,0.981,0.396,0.451,0.409,0.384,0.387,0.241,0.248,0.272,0.255,0.235
NCI-H1355,1.08,1.03,0.994,0.993,0.952,0.978,0.971,0.961,0.915,0.944,0.458,0.441,0.425,0.464,0.39,1.11,1.02,0.987,1,1
NCI-H1395,0.962,0.841,0.713,0.795,0.719,0.942,0.866,0.929,0.877,0.882,0.658,0.603,0.409,0.578,0.58,0.869,0.882,0.866,0.989,0.925
NCI-H1437,1.05,0.981,0.953,0.996,0.991,1.04,1.02,0.993,0.995,0.959,0.894,0.892,0.867,0.93,0.857,0.35,0.291,0.362,0.299,0.296
NCI-H1563,1.06,1.06,0.97,1.07,0.973,0.972,0.974,1.01,0.981,0.957,0.802,0.76,0.738,0.779,0.741,0.827,0.803,0.652,0.854,0.613
NCI-H1648,1.01,0.971,0.992,0.624,0.678,0.756,0.758,0.953,0.761,0.942,0.238,0.247,0.303,0.253,0.267,–,0.758,0.712,0.807,0.529

Cell Line,relative viability ([1]; 0.0025 µM),relative viability ([1]; 0.007906 µM),relative viability ([1]; 0.025 µM),relative viability ([1]; 0.07906 µM),relative viability ([1]; 0.25 µM),relative viability (IDH-C35; 0.08 µM),relative viability (IDH-C35; 0.253 µM),relative viability (IDH-C35; 0.8 µM),relative viability (IDH-C35; 2.53 µM),relative viability (IDH-C35; 8 µM),relative viability ([2]; first compound 0.0025 µM),relative viability ([2]; first compound 0.007906 µM),relative viability ([2]; first compound 0.025 µM),relative viability ([2]; first compound 0.07906 µM),relative viability ([2]; first compound 0.25 µM),relative viability (IDH-C35 + Pemetrexed; first compound 0.08 µM),relative viability (IDH-C35 + Pemetrexed; first compound 0.253 µM),relative viability (IDH-C35 + Pemetrexed; first compound 0.8 µM),relative viability (IDH-C35 + Pemetrexed; first compound 2.53 µM),relative viability (IDH-C35 + Pemetrexed; first compound 8 µM)
NCI-H1650,0.986,1.07,1.11,1.14,1.21,1.01,0.986,0.928,0.923,0.839,0.788,0.657,0.755,0.817,0.631,0.334,0.4,0.323,0.428,0.362
NCI-H1651,0.962,1.08,0.986,0.963,0.993,0.939,0.947,0.921,1,0.959,0.726,0.734,0.846,0.659,0.662,0.53,0.615,0.571,0.607,0.641
NCI-H1666,1.09,0.97,1.01,0.983,1.02,1,0.956,0.965,1.06,1.04,0.881,0.927,0.811,0.8,0.944,0.881,0.825,0.822,0.874,0.718
NCI-H1734,1.01,1.16,1.03,0.889,0.962,1.06,1.04,1,0.879,0.995,0.682,0.592,0.65,0.617,0.624,0.432,0.423,0.443,0.413,0.409
NCI-H1755,1.03,1,1.03,0.989,1.03,1.05,0.961,0.968,1.03,1.01,0.767,0.743,0.684,0.702,0.704,0.455,0.748,0.458,0.411,0.473
NCI-H1792,0.933,0.773,0.751,0.744,0.736,0.832,0.862,0.974,0.969,1.13,0.739,0.816,0.717,0.645,0.652,1.03,0.711,0.721,0.899,0.919
NCI-H1793,0.94,0.995,1,0.886,0.686,0.961,0.874,0.844,0.859,0.994,0.298,0.289,0.262,0.242,0.231,0.759,0.783,0.804,1.04,0.854
NCI-H1915,1.04,1.03,0.993,0.991,1.03,0.993,0.975,1.01,0.952,0.913,0.647,0.667,0.646,0.694,0.659,0.555,0.475,0.508,0.54,0.461
NCI-H1944,1.04,1.1,0.982,0.933,0.944,1.01,1.07,0.927,0.941,0.976,0.434,0.45,0.416,0.427,0.391,0.591,0.67,0.562,0.612,0.568
NCI-H1975,1.07,0.997,0.873,0.988,1.02,0.968,1.01,0.986,1.05,0.966,0.751,0.648,0.802,0.804,0.879,0.284,0.284,0.281,0.288,0.32
NCI-H1993,1.05,0.91,0.963,0.843,0.884,0.843,0.955,0.891,1.02,0.955,0.515,0.539,0.541,0.463,0.57,0.527,0.628,0.677,0.598,0.637
NCI-H2009,1.07,1.08,0.963,1.09,1.09,1.03,1.03,1.01,0.988,0.946,0.742,0.701,0.616,0.706,0.695,1.02,0.968,0.936,1.01,0.936
NCI-H2023,1.03,1.09,0.934,0.976,1.03,0.981,1.08,0.959,0.981,0.994,0.465,0.423,0.481,0.473,0.393,0.262,0.246,0.245,0.241,0.2
NCI-H2085,0.992,0.954,0.939,0.981,0.793,1.01,1,0.957,1.09,0.969,0.722,0.685,0.759,0.736,0.447,0.943,0.889,0.889,0.893,0.888
NCI-H2087,1.05,1.13,0.951,0.92,1.26,1.2,1.07,0.945,0.898,0.931,0.72,0.506,0.517,0.564,0.54,0.732,0.592,0.678,0.647,0.697
